Measurements reported in patent US10837062B2, “Method for predicting a treatment response to a CRHR1 antagonist and/or a V1B antagonist in a patient with depressive and/or anxiety symptoms” (Max-Planck-Gesellschaft zur Förderung der Wissenschaften …, priority 2013, dated 2020).

Assays:
[1] = system: control littermates (CL); experiment: REMS activity by EEG/EMG sleep recording in control littermates (CL) of Cor26 CRH mice; format: in vivo; details: CL animals of Cor26 CRH line; 50 mg/kg/d via drinking water
Method: (§1) Experiments were conducted with two different mouse lines of excessive central CRH secretion and their respective control littermates (CL). Mice of the CRH-COE^CNS line are characterised by CRH-overexpression within the whole CNS, whereas mice of the Cor26 CRH line display a CRH-overexpression specific to CRH-ergic neurons of the CNS. Three different CRHR1 antagonists were tested. […] In all cases, animals were left to recover from EEG/EMG-electrode implantation for two weeks, after which two days of baseline recording were initiated. Treatment with CRH-R1 antagonist or respective vehicle control commenced thereafter for five consecutive days. Antagonists were applied through the drinking water at a daily dose of 50 mg/kg body weight. EEG and EMG recordings were manually scored as wake, non-REMS (NREMS), and REMS in four second epochs by an experienced evaluator.

[2] = system: Cor26 CRH mice; experiment: REMS activity by EEG/EMG sleep recording in Cor26 CRH mice; details: for REMS levels / REMS activity: CRH-overexpressing Cor26 CRH mice, 50 mg/kg/d via drinking water
[3] = system: control littermates (CL); experiment: REMS activity by EEG/EMG sleep recording in control littermates (CL) of CRH-COE^CNS mice; format: in vivo; details: CL mice of CRH-COE^CNS line; 50 mg/kg/d via drinking water
Method: as §1

[4] = system: CRH-COE^CNS mice; experiment: REMS activity by EEG/EMG sleep recording in CRH-COE^CNS mice; details: for REMS activity: 50 mg/kg/d via drinking water, treatment days vs baseline, significant from treatment day two (DMP-696 P<0.05; SSR125543 P≤0.035)

CCC(CC)Oc1cc(C)nc(Oc2c(C)cc(C)cc2C)c1C [CP-316,311]
REMS levels in control littermates [1]: no significant effect
REMS levels / REMS activity ([2]; 50 mg/kg/day): weak
REMS levels / REMS activity ([2]; listed as CP-316311, 50 mg/kg/day): suppressed
REMS levels, area under the curve (AUC) within the light period ([2]; Cor26 CRH mice, baseline vs treatment day three, P=0.006): significant decrease

COCC(COC)Nc1nc(C)nc2c(-c3ccc(Cl)cc3Cl)c(C)nn12 [DMP-696]
REMS activity in control littermates [3]: only a mild suppression
treatment day of strongest suppression of REMS activity ([4]; CRH-COE^CNS animals, 50 mg/kg/d): treatment day three
REMS suppression relative to baseline REMS-levels of CL ([4]; CRH-COE^CNS mice, 50 mg/kg/d): never exceeded baseline REMS-levels of CL
REMS activity ([4]; CRH-COE^CNS mice, 50 mg/kg/day): significant decrease
REMS activity ([4]; CRH-COE^CNS mice, listed as DMP696, 50 mg/kg/day): suppressed
